Experimental data from PMC12378631, “Novel macrocyclic peptidomimetics targeting the insulin-regulated aminopeptidase (IRAP): design, synthesis and evaluation” (RSC Medicinal Chemistry, 2025).

Experiments:
[1] = biological target: insulin-regulated aminopeptidase (IRAP) (Homo sapiens, UniProt Q9UIQ6); conditions: for IC50 higher than compound 37: compared with compound 37
[2] = test system: rodent models of cognitive impairment; design: method as in PMID 10234025, PMID 11707427, PMID 3252173, PMID 14980384; conditions: cited from earlier work
[3] = test system: dendritic spine density in the hippocampus; design: method as in PMID 26769413; conditions: cited from earlier work
[4] = cited from earlier work

Sequence of insulin-regulated aminopeptidase (IRAP) (Q9UIQ6 whole entry): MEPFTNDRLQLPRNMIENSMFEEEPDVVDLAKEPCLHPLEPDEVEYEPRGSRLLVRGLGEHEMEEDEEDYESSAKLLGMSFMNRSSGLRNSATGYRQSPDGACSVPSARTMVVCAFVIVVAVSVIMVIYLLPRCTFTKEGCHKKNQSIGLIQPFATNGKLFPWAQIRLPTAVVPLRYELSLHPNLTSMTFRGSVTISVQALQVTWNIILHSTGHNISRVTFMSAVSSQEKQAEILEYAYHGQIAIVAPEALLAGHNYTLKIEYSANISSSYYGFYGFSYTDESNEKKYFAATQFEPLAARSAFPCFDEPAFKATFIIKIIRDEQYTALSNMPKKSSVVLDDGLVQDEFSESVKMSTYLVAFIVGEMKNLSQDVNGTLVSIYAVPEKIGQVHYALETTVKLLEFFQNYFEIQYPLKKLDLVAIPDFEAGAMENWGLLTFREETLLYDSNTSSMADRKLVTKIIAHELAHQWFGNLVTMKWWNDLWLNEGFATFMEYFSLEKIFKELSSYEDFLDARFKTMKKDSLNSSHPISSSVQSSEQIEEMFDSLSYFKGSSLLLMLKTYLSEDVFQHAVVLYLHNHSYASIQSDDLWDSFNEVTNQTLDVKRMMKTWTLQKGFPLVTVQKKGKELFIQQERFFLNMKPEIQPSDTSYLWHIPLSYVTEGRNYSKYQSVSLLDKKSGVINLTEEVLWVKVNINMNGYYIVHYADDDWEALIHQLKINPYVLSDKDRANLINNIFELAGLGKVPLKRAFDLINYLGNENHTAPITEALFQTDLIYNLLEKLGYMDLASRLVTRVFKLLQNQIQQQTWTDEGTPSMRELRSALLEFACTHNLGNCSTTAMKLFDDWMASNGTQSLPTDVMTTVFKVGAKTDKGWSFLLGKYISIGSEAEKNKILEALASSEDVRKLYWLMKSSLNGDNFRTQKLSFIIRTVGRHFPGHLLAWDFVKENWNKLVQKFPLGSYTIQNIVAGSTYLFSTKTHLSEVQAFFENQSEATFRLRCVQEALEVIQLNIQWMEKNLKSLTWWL

| IC50 [1] | IC50 higher than compound 37 [1] | Molecule | performance in rodent models of cognitive impairment [2] | dendritic spine density in the hippocampus [3] | susceptibility to proteolytic degradation in vivo [4] |
| --- | --- | --- | --- | --- | --- |
| 0.906 µM | 14 fold | N[C@H]1CCSSC[C@@H](C(=O)NCc2cccc(C(=O)O)c2)NC(=O)C[C@H](Cc2ccc(O)cc2)NC1=O [Compound 38] |  |  |  |
| 2.95 µM | 46 fold | N[C@H]1CCSSC[C@@H](C(=O)NCc2ccc(C(=O)O)cc2)NC(=O)C[C@H](Cc2ccc(O)cc2)NC1=O [Compound 39] |  |  |  |
|  |  | Val–Tyr–Ile–His–Pro–Phe [Ang IV] | improves performance in rodent models of cognitive impairment |  |  |
|  |  | N[C@H]1CCSSC[C@@H](C(=O)NCc2ccccc2CC(=O)O)NC(=O)C[C@H](Cc2ccc(O)cc2)NC1=O [HA08] |  | increase dendritic spine density in the hippocampus | susceptible to proteolytic degradation in vivo |
